In US12012413B2, “Methods of treating painful diabetic peripheral neuropathy” (Tenacia Biotechnology (Hong Kong) Co., Limited, priority 2019, dated 2024):
Converted amounts (≈) assume the structure as drawn. Where two headings read alike, the source gives them in different places.

Assays:
[1] = Solid form conversion / physical stability (XRPD); assay type: physicochemical; settings: for form conversion in suspension: isopropanol, ethyl acetate, or isopropyl acetate
Method: X-ray powder diffraction (XRPD) analysis was carried out on a Stoe Stadi P with Mythen1K detector; Cu-Kα1 radiation; 40 kV and 40 mA tube power; curved Ge monochromator; 0.02° 2θ step size, 12 s step time, 1.5-50.5° 2θ scanning range; detector mode: step scan; 1° 2θ detector step. The sample (about 20 mg) was placed between two acetate foils and clamped in a Stoe transmission sample holder. The sample holder was rotated during the measurement.
X-ray powder diffraction (XRPD) analysis was also carried out on a on a Bruker D8 Advance; Cu-Kα radiation; standard measurement conditions: Bragg-Brentano reflection geometry; 40 kV and 40 mA tube power; LynxEye detector; 0.02° 2θ step size, 37 s step time, 2.5-50.5° 2θ scanning range (about 10 min measurement time. The sample was spread on a silicon single crystal substrate without cavity and flattened to fit to the 0.1 mm depth of the sample holder.
Crystalline, anhydrous Form C material of 3-hydroxy-2-(5-isobutyryl-1-oxo-2,5-diazaspiro[3.4]octan-2-yl)butanamide is not stable in comparison to anhydrous Form A or anhydrous Form B under ambient conditions of temperature and humidity. […] In turn, anhydrous Form A and anhydrous Form B each convert to monohydrate Form MH under the conditions described above.

[2] = Solubility of anhydrous crystalline forms in water and isopropyl acetate at room temperature; assay type: physicochemical
[3] = test system: neuropathic pain associated with diabetic peripheral neuropathy; test: Randomized, double-blind, placebo-controlled multiple-dose study in subjects with neuropathic pain associated with diabetic peripheral neuropathy; assay type: in vivo, human
Method: A randomized, double-blind, parallel-group, placebo-controlled, multiple-dose study was conducted to assess the efficacy and safety of NYX-2925 in subjects with neuropathic pain associated with diabetic peripheral neuropathy. The study was to evaluate the efficacy of multiple dose levels of NYX-2925 versus placebo in treating the neuropathic pain associated with diabetic peripheral neuropathy. The study was also to assess the effects of multiple dose levels of NYX-2925 versus placebo on pain characteristics, sleep interference, health status, psychological state, and global improvement, and to assess the safety and tolerability of multiple dose levels of NYX-2925. The study was a 6- to 9-week study, including a 1- to 4-week Screening Period, followed by a 4-week double-blind, randomized, placebo-controlled Treatment Period, and a 1-week Follow-Up Period. Subjects with Type 2 diabetes who had been on stable antidiabetic medication for at least 1 month (or had stable glycemic control with diet and exercise alone) and who had been suffering from painful diabetic peripheral neuropathy in the lower extremities for at least 6 months but not more than 10 years were screened for diabetic peripheral neuropathy using the Michigan Neuropathy Screening Instrument and the Masquerading Disorders Tool. […] Subjects were dispensed acetaminophen to be used as rescue medication, and were instructed to take no more than 2 g/daily (one to two 500-mg caplets every 4 to 6 hours as needed) for DPN pain. Beginning immediately after Visit 1, pain intensity and rescue medication use were recorded in the study-issued handheld device daily at bedtime. Subjects entered their average pain intensity, worst pain intensity, pain on walking, and whether rescue medication was used during the past 24 hours. Pain intensity was recorded using an 11-point NRS, with 0 being no pain and 10 being the worst pain imaginable. Every morning upon awakening, subjects completed the Daily Sleep Interference Scale (DSIS) via their study-issued handheld device. Eligible subjects were randomized to receive either NYX-2925 10 mg daily, NYX-2925 50 mg daily, NYX-2925 200 mg daily, or placebo for 4 weeks in a 1:1:1:1 allocation. Investigators and subjects were masked to the randomization allocation. Subjects were dispensed a 2-week supply of investigational product and instructed to take 2 capsules by mouth once daily. Subjects were also re-dispensed acetaminophen to use as rescue medication for DPN pain; instructions not to exceed 2 g/day were reinforced. The appropriate use of rescue medication was assessed by inventory of the returned caplets, as well as by subject interview. Subjects were instructed to continue entering their average pain intensity, worst pain intensity, pain upon walking, and whether they used rescue medication over the past 24 hours into their study-issued handheld devices every night. Every morning upon awakening, subjects completed the DSIS via their study-issued handheld device. Pain diary compliance was reviewed at each study visit by the study staff, and reporting instructions was reinforced. Quantitative sensory testing was done using the Bedside Sensory Testing Kit. The following scales were completed at the Baseline Visit: Brief Pain Inventory for Diabetic Peripheral Neuropathy (BPI-DPN), the Short-Form McGill Pain Questionnaire version 2 (SF-MPQ-2), the Norfolk Quality of Life Questionnaire-Diabetic Neuropathy (QOL-DN), the HADS, the Insomnia Severity Index, and the S-STS. Subjects returned to the clinic at the end of Week 2 for assessment of compliance with study medication, use of rescue medication, and were dispensed the final 2-week supply of investigational product and rescue medication for DPN pain. Pain diary compliance was reviewed by the study staff, and reporting instructions were reinforced. Adverse events were assessed by asking the subjects a non-leading question. Use of concomitant medications was documented. […]

[4] = 10, 50 or 200 mg by mouth once daily for 4 weeks
[5] = advanced DPN (at least 4 years)
[6] = patients with at least 4 years of DPN duration

## CC(C)C(=O)N1CCCC12CN(C(C(N)=O)C(C)O)C2=O (centres unmarked) [3-hydroxy-2-(5-isobutyryl-1-oxo-2,5-diazaspiro[3.4]octan-2-yl)butanamide]
[1]; about six weeks in a sealed vial at −20° C.
  physical stability on storage (XRPD): did not crystallize

## CC(C)C(=O)N1CCCC12CN(C(C(N)=O)C(C)O)C2=O (centres unmarked) [Form A, 3-hydroxy-2-(5-isobutyryl-1-oxo-2,5-diazaspiro[3.4]octan-2-yl)butanamide]
[1]; ambient temperature, atmosphere of greater than 5% relative humidity
  time to convert to the monohydrate Form MH in the solid phase: ≤ 3 days
[2]; after 10 minutes, 1 hour, and 6 hours at room temperature
  solubility in isopropyl acetate: about 8 mg/mL
[2]; isopropyl acetate, 22 °C, organic solvent or mixture, room temperature (about 22° C.), read-out: solubility in isopropyl acetate
  solubility: ~8 mg/mL (≈ 26.9 mM)
[2]; water, 22 °C, water, room temperature (about 22° C.), read-out: solubility in water
  solubility: 54 to 55 mg/mL (≈ 182 to 185 mM)

## CC(C)C(=O)N1CCCC12CN(C(C(N)=O)C(C)O)C2=O (centres unmarked) [Form B, 3-hydroxy-2-(5-isobutyryl-1-oxo-2,5-diazaspiro[3.4]octan-2-yl)butanamide]
[1]; ambient temperature, atmosphere of greater than or equal to 50% relative humidity
  conversion to the monohydrate Form MH in the solid state: readily converts to the monohydrate Form MH
[2]; isopropyl acetate, organic solvent or mixture, after 10 minutes, 1 hour, and 6 hours at room temperature, read-out: solubility in isopropyl acetate
  solubility: ~9 mg/mL (≈ 30.3 mM)
[2]; water, after 10 minutes at room temperature
  solubility at 10 min: ~54 mg/mL (≈ 182 mM)
[2]; water, after 1 hour at room temperature
  solubility at 1 h: ~54 mg/mL (≈ 182 mM)
[2]; water, after 6 hours at room temperature
  solubility at 6 h: ~48 mg/mL (≈ 161 mM)

## CC(C)C(=O)N1CCCC12CN(C(C(N)=O)C(C)O)C2=O (centres unmarked) [Form C, 3-hydroxy-2-(5-isobutyryl-1-oxo-2,5-diazaspiro[3.4]octan-2-yl)butanamide]
[1]; ambient conditions of temperature and humidity
  stability in comparison to anhydrous Form A or anhydrous Form B: not stable
[1]; temperatures greater than or equal to 75° C.
  form conversion in suspension: converts to anhydrous Form B
[1]; temperatures less than or equal to 50° C.
  form conversion in suspension: converts to anhydrous Form A

## CC(C)C(=O)N1CCC[C@]12CN([C@H](C(N)=O)[C@@H](C)O)C2=O [NYX-2925, (2S,3R)-3-hydroxy-2-((R)-5-isobutyryl-1-oxo-2,5-diazaspiro[3.4]octan-2-yl)butanamide]
[3]; 50 mg dose, advanced DPN (at least 4 years), at least at the 2, 3 and 4 week points
  change in daily sleep interference score from baseline: Statistical significance
[3]; 50 mg dose, advanced DPN (at least 4 years), at least at the 3 and 4 week points
  change in average pain (NRS) from baseline: Statistical significance
[3]; 50 mg dose, groups ≥1 to ≥5 yrs
  change from placebo in average daily pain, baseline to week 4, by duration of painful DPN: most significant at ≥4 years
[3]; 50 mg once daily, patients with advanced DPN
  Week 4 change vs. baseline in average daily pain (on 10-point NRS): 1.93 points
[3]; 50 mg once daily, patients with advanced DPN, p=0.004
  Week 4 change vs. placebo in average daily pain (on 10-point NRS): 1.21 points
[3]; 200 mg and 50 mg doses
  separation from placebo by dose: meaningful separation from placebo
[3]; 10, 50 and 200 mg doses
  shape of dose response: inverted-U-shaped dose response
[3]; [4]
  overall AE profile: comparable to placebo
  safety and tolerability: safe and well tolerated
  serious adverse events (SAEs): no SAEs
[3]; [5]
  change in pain on walking (NRS) score from baseline: improvement
  change in worst pain from baseline: improvement
[3]; once daily for 4 weeks
  most active dose level among the three doses tested (10, 50, 200 mg): 50 mg
[3]; patients not on a concomitant analgesic (n=148), 10, 50 or 200 mg by mouth once daily for 4 weeks
  separation from placebo on the primary endpoint (change in average daily pain): numeric, but not statistically significant, separation from placebo
[3]; patients with DPN, after four weeks
  pain alleviation: meaningful pain alleviation
[3]; patients with advanced DPN (DPN for ≥4 years, n=127; post-hoc analysis)
  effects on change in average daily pain vs. placebo: significant effects
[3]; [6]
  insomnia severity (secondary endpoint): Improvement
  pain interference (secondary endpoint): Improvement
  pain severity (secondary endpoint): Improvement
  patient global impression of change (PGI-C) (secondary endpoint): Improvement
  quality of life (secondary endpoint): Improvement
  total pain score (secondary endpoint): Improvement
[3]; patients with or without a concomitant analgesic
  effect of concomitant analgesic use on treatment benefit: does not appear to affect treatment benefit
[3]; subjects not using analgesic (n=148), 50 mg dose, at the 3 and 4 week points
  MMRM change in daily sleep interference: significance
[3]; total patient population (n=300), 10, 50 or 200 mg by mouth once daily for 4 weeks
  separation from placebo on the primary endpoint (change in average daily pain): numeric, but not statistically significant, separation from placebo
